# “And” between values parts separate entries of the source, which are not always exact repeats. Equal entries are not always repeated. “Also recorded” adds a separate entry of the source.
# Key:
# Assay type in all cases: in vivo, human
# endometriosis = assay: ASRM classification of endometriosis before and after treatment (pilot study); details: per patient (9 women with hyperprolactinemia and endometriosis); oral 25 then 50 then 75 micrograms/day, total 18-20 weeks; stage IV most severe, stage I least severe
# Experimental: (§1) 1] Laparoscopy 1: an endometriotic implant was biopsied, and a second endometriotic implant, similar to the biopsied one, was marked with a non-absorbable suture. Pictures were taken before and after surgery from all individuals. The marked implant was photographed (e.g. FIG. 1A). The biopsy sample was analysed as described below. An assessment of ASRM stage pre-treatment was taken. The PRL level (μg/mL) and Ca125 level (IU/ml) for each patient was measured pre-treatment, by known methods.
# 3] Laparoscopy 2: in which the second (marked) implant was biopsied. The marked implant was photographed (e.g. FIG. 1B). The biopsy sample was analysed as described below. A second assessment of the ASRM stage post-treatment was completed. The PRL level (μg/mL) and Ca125 level (IU/ml) for each patient was measured post-treatment, by known methods.
# Operative L1 and L2 were performed by two experienced surgeons using modern laparoscopic equipment and the surgeries were recorded by video. The severity of the disease was established according to the Revised American Society for Reproductive Medicine classification of endometriosis: […] (16). During L1, 4-6 index peritoneal red lesions were identified before surgical manipulation started. Half of the index lesions were surgically removed and stored as described below. […]
# PRL = assay: Serum PRL level before and after treatment; details: per patient; after oral 25/50/75 micrograms/day titrated treatment, 18-20 weeks
# Experimental: 1] Laparoscopy 1: an endometriotic implant was biopsied, and a second endometriotic implant, similar to the biopsied one, was marked with a non-absorbable suture. Pictures were taken before and after surgery from all individuals. The marked implant was photographed (e.g. FIG. 1A). The biopsy sample was analysed as described below. An assessment of ASRM stage pre-treatment was taken. The PRL level (μg/mL) and Ca125 level (IU/ml) for each patient was measured pre-treatment, by known methods. 3] Laparoscopy 2: in which the second (marked) implant was biopsied. The marked implant was photographed (e.g. FIG. 1B). The biopsy sample was analysed as described below. A second assessment of the ASRM stage post-treatment was completed. The PRL level (μg/mL) and Ca125 level (IU/ml) for each patient was measured post-treatment, by known methods. During the four month treatment period, i.e. between L1 and L2, patients were monthly monitored in our clinic to assess severity of common side effects of Drd2-A like dizziness, nausea and vomiting. During these visits, blood was drawn for subsequent EIA measurement of serum PRL, a marker of the level of Drd2 activity, to monitor compliance with taking the medication.
# [1] = tested on: proliferating cells (Ki67+) in endometriotic implants; assay: Proliferative activity by Ki-67 immunocytochemistry; details: after versus before treatment, FIG. 3
# Experimental: Immunocytochemistry with Ki-67 (monoclonal IgG1 DAKO Corp., Denmark) antibody was performed in order to evaluate the proliferative activity of the samples, by methods well known in the art. […] The images obtained show proliferating cells as positive for Ki67 with nuclear (brown/black) staining. At least 10 random 40× microscopic fields per sample were photographed and analysed. Areas of interest corresponding to proliferating cells (Ki67+) were segmented and marked, and counted.
# [2] = tested on: peritoneal red endometriotic lesions; assay: Macroscopic analysis: appearance and surface area of index endometriotic lesions at L1 and L2
# Experimental: Operative L1 and L2 were performed by two experienced surgeons using modern laparoscopic equipment and the surgeries were recorded by video. The severity of the disease was established according to the Revised American Society for Reproductive Medicine classification of endometriosis: […] (16). During L1, 4-6 index peritoneal red lesions were identified before surgical manipulation started. Half of the index lesions were surgically removed and stored as described below. The remaining half index lesions were left behind and marked with an unabsorbable silk knot sature approximately 1 cm away from them. All non-index lesions were subsequently removed and discarded. […] Thus the study continued with 10 patients after L1. One patient discontinued treatment. At the end of treatment, the L2 was performed and video recorded. During surgery the silk knot was identified in all patients, the suture removed and the area containing the index lesion left behind surgically excised. If significant adhesion formation was detected, lysis of adhesion was performed. The index lesions removed at L1 and L2 were fixed in formalin (approximately 75% of each lesion tissue) for histological verification and descriptive analysis of endometriosis. Formalin fixed samples were also employed for immunohistochemical analysis and subsequent quantification of vascularisation, vessel immatureness, Drd2 expression, cell proliferation, VEGFR2 expression and VEGFR2 activation by techniques well known in the art. The remaining portion of each lesion tissue (25%) was homogenized in Trizol and cryopreserved at −80° C. for subsequent Superarray QF-PCR analysis. All laparoscopies were recorded with a Karl Storz (Germany) videocamera. […] Eligible frames were captured, copied to a PC computer and opened with ImagePro Plus Version 6.03 (Media Cybernetics, Silver Spring, Md., USA) software for image processing. The size of the black or grey cap served as a reference to measure the changes in surface induced by quinagolide at L2 over the lesions left behind during L1.
# Ca125 = Ca125 level before and after treatment; details: per patient; after oral 25/50/75 micrograms/day titrated treatment, 18-20 weeks
# Experimental: as §1, with “methods. 3] Laparoscopy 2: in which the second (marked) implant was biopsied. The marked implant was photographed (e.g. FIG. 1B). The biopsy sample was analysed as described below. A second assessment of the ASRM stage post-treatment was completed. The PRL level (μg/mL) and Ca125 level (IU/ml) for each patient was measured post-treatment, by known methods.” for “methods.”
# [3] = tested on: dopamine receptor 2 (DAR2); assay: DAR2 expression in endometriotic lesions by staining; details: after versus before treatment, FIG. 5
# Experimental: DAR2 expression in human endometriotic lesions was measured by staining, by methods well known in the art (FIG. 5, bottom).
# [4] = tested on: vessels in endometriotic lesions; assay: Vascularisation of biopsy samples by CD31 immunofluorescence/immunohistochemistry; details: after versus before treatment, FIG. 2
# Experimental: The vascularisation effects of the quinagolide were assessed by immunofluorescence/immunohistochemistry on the biopsy samples taken before and after treatment, by methods well known in the art. The CD31(+) signal was used which specifically stains for vessels; vessels are stained brown. In order to quantify vascularisation at least 10 random 40× microscopic fields per sample were photographed and analysed using Image pro-plus software. Areas of interest corresponding to vessels (brown stain) were segmented and marked; and those corresponding to non vascularised areas were segmented and marked differently. The marked image was then analysed to show the % vascularised area per tissue, and the results for samples before and after treatment are shown in FIG. 2.
# endometriotic lesions = assay: Histological analysis and Superarray QF-PCR expression analysis of index lesions removed at L1 and L2
# Experimental: At the end of treatment, the L2 was performed and video recorded. During surgery the silk knot was identified in all patients, the suture removed and the area containing the index lesion left behind surgically excised. If significant adhesion formation was detected, lysis of adhesion was performed. The index lesions removed at L1 and L2 were fixed in formalin (approximately 75% of each lesion tissue) for histological verification and descriptive analysis of endometriosis. Formalin fixed samples were also employed for immunohistochemical analysis and subsequent quantification of vascularisation, vessel immatureness, Drd2 expression, cell proliferation, VEGFR2 expression and VEGFR2 activation by techniques well known in the art. The remaining portion of each lesion tissue (25%) was homogenized in Trizol and cryopreserved at −80° C. for subsequent Superarray QF-PCR analysis.
# [5] = L2 versus L1, results not shown
structure (smiles),measurement,setting,value
"CCCN1C[C@H](NS(=O)(=O)N(CC)CC)C[C@H]2Cc3c(O)cccc3C[C@@H]21 [quinagolide, (3R,4aR,10aS)-3-(Diethylsulfamoylamino)-6-hydroxy-1-propyl-3,4,4a,5,10,10a-hexahydro-2H-benzo[g]quinoline]",ASRM post treatment,endometriosis,Stage II; also recorded: Stage I; also recorded: Stage III
same,PRL level after treatment,PRL,<0.6 μg/mL (2×) and 15.1 μg/mL and 14 μg/mL and 6.5 μg/mL and <0.1 μg/mL and 6.4 μg/mL and 1.1 μg/mL and 28.6 μg/mL
same,Cell proliferation (Ki-67 positive cells per microscopic field),[1],trend towards reduced cell proliferation
same,"Decrease of mean total surface area (size) of index lesions, L2 versus L1","[2]; 9 patients, after 18-20 weeks treatment",68%
same,Mean of the total surface area of index lesions measured during L2,"[2]; 9 patients, vanished lesions counted as 100% size reduction, L1 value 36.09±20.56 mm^2, p<0.05",11.57±12.54 mm^2
same,Lesions vanishing,[2]; after 18-20 weeks treatment,35%
same,Number of recovered index lesions showing reduction in size compared to L1,[2]; out of 15 lesions recovered at L2,13
same,Number of red index lesions vanished at L2,[2]; out of 23 red index lesions labelled at L1,8
same,Number of patients with all index endometriotic lesions absent during L2,[2]; out of the 9 patients,2
same,Number of patients with vanished lesions combined with persisting lesions decreased in size,[2]; out of the 9 patients,3
same,Ca125 level after treatment,Ca125,25.9 IU/ml and 15.5 IU/ml and 18 IU/ml and 21.1 IU/ml and 22 IU/ml and 24.1 IU/ml and 20.4 IU/ml and 29.9 IU/ml and 24.9 IU/ml
same,Expression of the dopamine receptor 2 (DAR2) in endometriotic lesions,[3],increases the expression
same,"Vascularisation of the endometriotic sample (% vascularised area, CD31)",[4],significant decrease in vascularisation
same,PAI-1 expression,endometriotic lesions; L2 lesion,down-regulated
same,Histological analysis of lesions,endometriotic lesions; L2 lesions,signs of tissue degeneration
same,Expression of Drd2 and antiangiogenic cytokine CXCL10,endometriotic lesions; [5],upreguilating
same,"Expression of VEGF/VEGFR2 and proangiogenic cytokines CCL2, RUNX1 and AGGF1",endometriotic lesions; [5],downregulated

# Reference: patent US20140194460A1, “TREATMENT OF ENDOMETRIOSIS” (Ferring B.V., priority 2009, published 2014)
